The supplement of paper PMC10307832

Tests used:
Test in all cases: relative viability (nuclei count vs DMSO), 5 days (fraction); higher = more cells survive
[1] = compound: Nc1ncn([C@H]2C[C@H](O)[C@@H](CO)O2)c(=O)n1 [Decitabine] + C[C@@H](Oc1cc(-c2cnn(C3CCNCC3)c2)cnc1N)c1c(Cl)ccc(F)c1Cl [Crizotinib] (partner 1 µM)
How it was run: (§1)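 Medians of duplicate plates are given as relative viability. That measure is the nuclei count in treated wells divided by the count in vehicle wells. Counts were taken on 4× images of lung cancer cell lines in 1536-well plates, 5 days after pin-tool dosing the day after seeding with one drug alone or a fixed anchor-drug dose plus five library-drug doses (not always all listed) in √10 steps.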

[2] = compound: O=C(C[C@H]1NCCC[C@@H]1O)Cn1cnc2cc(Br)c(Cl)cc2c1=O (racemic) [Halofuginone] + C[C@]1(O)C[C@@H](c2nc(-c3ccc4ccc(-c5ccccc5)nc4c3)c3c(N)nccn32)C1 [Linsitinib] (partner 1 µM)
How it was run: as §1

[3] = compound: COc1cc2c(Oc3ccc4[nH]c(C)cc4c3F)ncnc2cc1OCCCN1CCCC1 [Cediranib] + O=C(CCCCCCC(=O)Nc1ccccc1)NO [Vorinostat] (partner 1 µM)
How it was run: as §1

[4] = compound: COc1cc2c(Oc3ccc4[nH]c(C)cc4c3F)ncnc2cc1OCCCN1CCCC1 [Cediranib] + C[C@@H](Oc1cc(-c2cnn(C3CCNCC3)c2)cnc1N)c1c(Cl)ccc(F)c1Cl [Crizotinib] (partner 1 µM)
How it was run: as §1

Row | Cell Line | relative viability ([1]; first compound 0.04 µM) | relative viability ([1]; first compound 0.1265 µM) | relative viability ([1]; first compound 0.4 µM) | relative viability ([1]; first compound 1.265 µM) | relative viability ([1]; first compound 4 µM) | relative viability ([2]; first compound 0.001 µM) | relative viability ([2]; first compound 0.003162 µM) | relative viability ([2]; first compound 0.01 µM) | relative viability ([2]; first compound 0.03162 µM) | relative viability ([2]; first compound 0.1 µM) | relative viability ([3]; first compound 0.04 µM) | relative viability ([3]; first compound 0.1265 µM) | relative viability ([3]; first compound 0.4 µM) | relative viability ([3]; first compound 1.265 µM) | relative viability ([3]; first compound 4 µM) | relative viability ([4]; first compound 0.04 µM) | relative viability ([4]; first compound 0.1265 µM) | relative viability ([4]; first compound 0.4 µM) | relative viability ([4]; first compound 1.265 µM) | relative viability ([4]; first compound 4 µM)
1 | NCI-H2405 | 0.807 | 0.759 | 0.671 | 0.562 | 0.41 | 0.991 | 1.05 | 1.01 | 0.906 | 0.69 | 0.995 | 0.928 | 0.983 | 1.03 | 1.21 | 0.849 | 0.82 | 0.792 | 0.823 | 0.825
2 | Calu-6 | 0.495 | 0.478 | 0.283 | 0.227 | 0.224 | 1 | – | 0.932 | 0.712 | 0.35 | – | – | – | – | – | 0.844 | 0.849 | 0.81 | 0.786 | 0.602
3 | 201T | 1.02 | 1 | 1.15 | 0.965 | 0.914 | 1.07 | 1.08 | 1.03 | 0.967 | 0.724 | 1.08 | 0.631 | 0.84 | 0.973 | 1.04 | 1.05 | 1.18 | 0.989 | 1.01 | 1.01
4 | CAL-12T | 0.612 | 0.664 | 0.174 | 0.416 | 0.222 | 0.842 | 0.838 | 0.659 | 0.866 | 0.649 | 0.942 | 0.808 | 0.772 | 0.701 | 1.05 | 0.855 | 0.639 | 0.661 | 0.638 | 0.62
5 | HCC-44 | 0.641 | 0.72 | 0.28 | 0.449 | 0.374 | 0.67 | 0.678 | 0.594 | 0.682 | 0.341 | 1.14 | 0.94 | 1.07 | 1.1 | 1.11 | 0.803 | – | 0.774 | 0.825 | 0.935
6 | NCI-H358 | 0.385 | 0.39 | 0.246 | 0.192 | 0.161 | 0.779 | 0.707 | 0.629 | 0.273 | 0.19 | 0.689 | 1.05 | 0.638 | 0.705 | 0.648 | 0.546 | 0.641 | 0.637 | 0.567 | 0.428
7 | SW 900 | – | – | – | – | – | – | – | – | – | – | 0.425 | 0.413 | 0.438 | 0.478 | 0.495 | – | – | – | – | –
8 | NCI-H2087 | 0.515 | 0.568 | 0.563 | 0.347 | 0.292 | 1.01 | 1.04 | 0.945 | 0.98 | 0.833 | 0.939 | 0.694 | 0.474 | 0.671 | 0.63 | 0.926 | 0.868 | 0.807 | 0.838 | 0.912
9 | COR-L 105 | 0.596 | 0.633 | 0.573 | 0.356 | 0.319 | 1.13 | 0.932 | 0.764 | 0.748 | 0.753 | 0.921 | 0.847 | 0.733 | 0.766 | 0.91 | – | 0.842 | 0.832 | 0.716 | 0.695
